Test results reported in ChEMBL document CHEMBL1201862, “PubChem BioAssay data set” (2004).
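Interpolation was linear, between the two tested concentrations surrounding the appropriate level; five concentrations were tested over 48 hours in 96-well plates. GI50 = concentration required for 50% inhibition of growth.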 Active and inactive are the calls of the source. No stated cut-off is given here; in the data, active = GI50 up to about 1.1 µM and inactive = higher.

Tests used:
Test in all cases: NCI tumour cell line growth inhibition, 48 h
NCI-H522 = test system: NCI-H522
MOLT-4 = test system: MOLT-4
MDA-MB-231 = test system: MDA-MB-231
MDA-N = test system: MDA-N
SF-539 = test system: SF-539
UACC-62 = test system: UACC-62
NCI-H23 = test system: NCI-H23
SK-OV-3 = test system: SK-OV-3
786-0 = test system: 786-0
HCT-116 = test system: HCT-116
NCI/ADR-RES = test system: NCI/ADR-RES
RXF 393 = test system: RXF 393
COLO 205 = test system: COLO 205
A549 = test system: A549
SNB-19 = test system: SNB-19
RPMI-8226 = test system: RPMI-8226
ACHN = test system: ACHN
IGROV-1 = test system: IGROV-1
SN12C = test system: SN12C
EKVX = test system: EKVX
OVCAR-5 = test system: OVCAR-5
SNB-75 = test system: SNB-75
T47D = test system: T47D
OVCAR-8 = test system: OVCAR-8
SW-620 = test system: SW-620
Malme-3M = test system: Malme-3M
HCC 2998 = test system: HCC 2998
HT-29 = test system: HT-29
HOP-62 = test system: HOP-62
OVCAR-4 = test system: OVCAR-4
M14 = test system: M14
UACC-257 = test system: UACC-257
UO-31 = test system: UO-31
HOP-92 = test system: HOP-92
NCI-H226 = test system: NCI-H226
K562 = test system: K562
SF-268 = test system: SF-268
SK-MEL-2 = test system: SK-MEL-2
BT-549 = test system: BT-549
HCT-15 = test system: HCT-15
SK-MEL-28 = test system: SK-MEL-28
OVCAR-3 = test system: OVCAR-3
KM12 = test system: KM12
TK-10 = test system: TK-10
SK-MEL-5 = test system: SK-MEL-5
NCI-H460 = test system: NCI-H460
CCRF-CEM = test system: CCRF-CEM
PC-3 = test system: PC-3
MDA-MB-435 = test system: MDA-MB-435
Hs-578T = test system: Hs-578T
U-251 = test system: U-251
SF-295 = test system: SF-295
LOX IMVI = test system: LOX IMVI
MCF7 = test system: MCF7
CAKI-1 = test system: CAKI-1
DU-145 = test system: DU-145
HL-60 = test system: HL-60
SR = test system: SR

Structure (SMILES): CC(=O)Nc1ccc(CNc2cc(=O)n(C)c(=O)[nH]2)cc1
- GI50 (NCI-H522): > 100 µM (inactive)
- GI50 (MOLT-4): > 100 µM (inactive)
- GI50 (MDA-MB-231): > 100 µM (inactive)
- GI50 (MDA-N): > 100 µM (inactive)
- GI50 (SF-539): > 100 µM (inactive)
- GI50 (UACC-62): > 100 µM (inactive)
- GI50 (NCI-H23): > 100 µM (inactive)
- GI50 (SK-OV-3): > 100 µM (inactive)
- GI50 (786-0): > 100 µM (inactive)
- GI50 (HCT-116): > 100 µM (inactive)
- GI50 (NCI/ADR-RES): > 100 µM (inactive)
- GI50 (RXF 393): > 100 µM (inactive)
- GI50 (COLO 205): > 100 µM (inactive)
- GI50 (A549): > 100 µM (inactive)
- GI50 (SNB-19): > 100 µM (inactive)
- GI50 (RPMI-8226): > 100 µM (inactive)
- GI50 (ACHN): > 100 µM (inactive)
- GI50 (IGROV-1): > 100 µM (inactive)
- GI50 (SN12C): > 100 µM (inactive)
- GI50 (EKVX): > 100 µM (inactive)
- GI50 (OVCAR-5): > 100 µM (inactive)
- GI50 (SNB-75): > 100 µM (inactive)
- GI50 (T47D): > 100 µM (inactive)
- GI50 (OVCAR-8): > 100 µM (inactive)
- GI50 (SW-620): > 100 µM (inactive)
- GI50 (Malme-3M): > 100 µM (inactive)
- GI50 (HCC 2998): > 100 µM (inactive)
- GI50 (HT-29): > 100 µM (inactive)
- GI50 (HOP-62): > 100 µM (inactive)
- GI50 (OVCAR-4): > 100 µM (inactive)
- GI50 (M14): > 100 µM (inactive)
- GI50 (UACC-257): > 100 µM (inactive)
- GI50 (UO-31): > 100 µM (inactive)
- GI50 (HOP-92): > 100 µM (inactive)
- GI50 (NCI-H226): > 100 µM (inactive)
- GI50 (K562): > 100 µM (inactive)
- GI50 (SF-268): > 100 µM (inactive)
- GI50 (SK-MEL-2): > 100 µM (inactive)
- GI50 (BT-549): > 100 µM (inactive)
- GI50 (HCT-15): > 100 µM
- GI50 (SK-MEL-28): > 100 µM (inactive)
- GI50 (OVCAR-3): > 100 µM (inactive)
- GI50 (KM12): > 100 µM (inactive)
- GI50 (TK-10): > 100 µM (inactive)
- GI50 (SK-MEL-5): > 100 µM (inactive)
- GI50 (NCI-H460): > 100 µM (inactive)
- GI50 (CCRF-CEM): > 100 µM (inactive)
- GI50 (PC-3): > 100 µM (inactive)
- GI50 (MDA-MB-435): > 100 µM (inactive)
- GI50 (Hs-578T): > 100 µM (inactive)
- GI50 (U-251): > 100 µM (inactive)
- GI50 (SF-295): > 100 µM (inactive)
- GI50 (LOX IMVI): > 100 µM (inactive)
- GI50 (MCF7): > 100 µM (inactive)
- GI50 (CAKI-1): > 100 µM (inactive)
- GI50 (DU-145): > 100 µM (inactive)
- GI50 (HL-60): > 100 µM (inactive)
- GI50 (SR): > 100 µM (inactive)
